Tests used:
Type in all cases: cell-based
[1] = system: RAW-Lucia cells; test: Luciferase assay based on RAW-Lucia cells; details: 24 h at 37° C.
Protocol: (§1) THP1-dual™ (Invivogen: thpd-nfis) cells or RAW-Lucia™ (Invivogen: rawl-isg) cells were diluted using a culture medium, and 180 μL of cell suspension was sucked and inoculated in a 96-well plate, such that each well contain 1×10^5 cells. 20 μL of a compound to be tested was added into the 96-well plate (the final concentration of said compound was […], and the final volume of each well was […]) and cultured at 37° C. for 24 h. 10 μL of supernatant was sucked into a new 96-well white plate, and 50 μL of a QUANT-Luc reagent was added. After full and even mixing, a microplate reader was used immediately for determination. There were three repeated wells set in the assay. The test result was represented as agitation fold and calculated by (test well−blank well)/(negative well−blank well). The test result was in the following tablet, with 2′,3′-cGAMP as a positive control, where *** represented an agitation fold of 20 or more, ** represented an agitation fold of 10 to 20, and * represented an agitation fold of 1 to 10.

[2] = system: THP1-dual cells; test: Luciferase assay based on THP1-dual cells; details: final concentration of compound 10 μL (so in the source), 24 h at 37° C.
Protocol: as §1

[3] = system: THP1 cells; test: Interferon β induction assay based on THP1 cells (ELISA); details: Homo sapiens, THP-1, compound 20 μM, 3.5 h, read-out: Secretion of IFNβ in THP1 cells, effect relative to 2′,3′-cGAMP at 20 μM (%)
Protocol: Secreted cytokine IFNβ was determined by ELISA. THP1 cells were inoculated in a 96-well plate (there was no serum contained in an RPMI 1640 medium), such that the number of cells in each well ranged from 5×10^5 to 7×10^5. A DMSO stock solution of 10 mM was prepared from a compound to be tested, diluted with a culture medium to a target concentration to be added into the 96-well plate containing cells (the final concentration of said compound was 20 μM, and the final volume of each well was 200 μL), and cultured at 37° C. in 5% CO2 for 3.5 h. The cells were collected at 4° C. and centrifuged at 1,000 rpm for 20 mins, and supernate was collected for ELISA determination. There were three repeated wells set in the assay. The result was shown in the following tablet, with 2′,3′-cGAMP as a positive control, where the test result was represented as a percentage of activity relative to 2′,3′-cGAMP at a concentration of 20 μM.

| Compound | Agitation activity in luciferase assay, RAW-Lucia (agitation fold) [1] | Agitation activity in luciferase assay, THP1-dual (agitation fold) [2] | Emax at 20 µM [3] |
| --- | --- | --- | --- |
| COc1cc2cc(C(=O)C[C@@H](C)C(=O)O)[se]c2cc1OC [I-3, R-4-(5,6-dimethoxybenzo[b]selenophene-2-yl)-2-methyl-4-oxo-butanoic acid] | *** (*** represented an agitation fold of 20 or more) | *** (*** represented an agitation fold of 20 or more) | 234% |
| COc1cc2cc(C(=O)C[C@H](C)C(=O)O)[se]c2cc1OC [I-4, S-4-(5,6-dimethoxybenzo[b]selenophene-2-yl)-2-methyl-4-oxo-butanoic acid] | *** (*** represented an agitation fold of 20 or more) | *** (*** represented an agitation fold of 20 or more) | 201% |
| COc1ccc2[se]c(C(=O)CC(C)C(=O)O)cc2c1 (stereo not drawn) [I-5] | * (* represented an agitation fold of 1 to 10) | * (* represented an agitation fold of 1 to 10) | 59% |
| COc1ccc2cc(C(=O)CC(C)C(=O)O)[se]c2c1 (stereo not drawn) [I-6, 4-(6-dimethoxybenzo[b]selenophene-2-yl)-2-methyl-4-oxo-butanoic acid] | * (* represented an agitation fold of 1 to 10) | * (* represented an agitation fold of 1 to 10) | 15% |
| COc1cc2[se]c(C(=O)CC(C)C(=O)O)cc2cc1O (stereo not drawn) [I-7, 4-(5-hydroxyl-6-dimethoxybenzo[b]selenophene-2-yl)-2-methyl-4-oxo-butanoic acid] | * (* represented an agitation fold of 1 to 10) | ** (** represented an agitation fold of 10 to 20) | 75% |
| CC(CC(=O)c1cc2cc3c(cc2[se]1)OCO3)C(=O)O (stereo not drawn) [I-8, 2-methyl-4-oxo-4-(selenophene[2′,3′:4,5]benzo[1,2-d][1,3]dioxo-6-yl)butanoic acid] | * (* represented an agitation fold of 1 to 10) | * (* represented an agitation fold of 1 to 10) | 20% |
| CCOc1cc2cc(C(=O)CC(C)C(=O)O)[se]c2cc1OC (stereo not drawn) [I-9, 4-(5-ethoxy-6-dimethoxybenzo[b]selenophene-2-yl)-2-methyl-4-oxo-butanoic acid] | ** (** represented an agitation fold of 10 to 20) | ** (** represented an agitation fold of 10 to 20) | 96% |
| COc1cc2[se]c(C(=O)CC(C)C(=O)O)cc2cc1OC(C)C (stereo not drawn) [I-10, 4-(5-isopropoxy-6-dimethoxybenzo[b]selenophene-2-yl)-2-methyl-4-oxo-butanoic acid] | ** (** represented an agitation fold of 10 to 20) | ** (** represented an agitation fold of 10 to 20) | 91% |
| CCOC(=O)C(C)CC(=O)c1cc2cc(OC)c(OC)cc2[se]1 (stereo not drawn) [I-11, 4-(5,6-dimethoxybenzo[b]selenophene-2-yl)-2-methyl-4-oxo-ethyl butyrate] | ** (** represented an agitation fold of 10 to 20) | * (* represented an agitation fold of 1 to 10) | 9% |
| COc1cc2cc(C(=O)CC(C)C(=O)NO)[se]c2cc1OC (stereo not drawn) [I-12, 4-(5,6-dimethoxybenzo[b]selenophene-2-yl)-N-hydroxyl-2-methyl-4-oxo-butyramide] | * (* represented an agitation fold of 1 to 10) | * (* represented an agitation fold of 1 to 10) | 11% |
| COc1cc2cc(C(=O)CC(C)C(N)=O)[se]c2cc1OC (stereo not drawn) [I-13, 4-(5,6-dimethoxybenzo[b]selenophene-2-yl)-2-methyl-4-oxo-butyramide] | * (* represented an agitation fold of 1 to 10) | * (* represented an agitation fold of 1 to 10) | 6% |
| CC[C@H](CC(=O)c1cc2cc(OC)c(OC)cc2[se]1)C(=O)O [I-15, R-4-(5,6-dimethoxybenzo[b]selenophene-2-yl)-2-ethyl-4-oxo-butanoic acid] | *** (*** represented an agitation fold of 20 or more) | *** (*** represented an agitation fold of 20 or more) | 2% |
| CC[C@@H](CC(=O)c1cc2cc(OC)c(OC)cc2[se]1)C(=O)O [I-16, S-4-(5,6-dimethoxybenzo[b]selenophene-2-yl)-2-ethyl-4-oxo-butanoic acid] | *** (*** represented an agitation fold of 20 or more) | *** (*** represented an agitation fold of 20 or more) | 281% |
| COc1cc2cc(C(=O)CC(C(=O)O)C(C)C)[se]c2cc1OC (stereo not drawn) [I-17, 4-(5,6-dimethoxybenzo[b]selenophene-2-yl)-2-isopropyl-4-oxo-butanoic acid] | ** (** represented an agitation fold of 10 to 20) | *** (*** represented an agitation fold of 20 or more) | 293% |
| COc1cc2cc(C(=O)CC(C(=O)O)C3CC3)[se]c2cc1OC (stereo not drawn) [I-18, 2-cyclopropyl-4-(5,6-dimethoxybenzo[b]selenophene-2-yl)-4-oxo-butanoic acid] | ** (** represented an agitation fold of 10 to 20) | *** (*** represented an agitation fold of 20 or more) | 277% |
| COCC(CC(=O)c1cc2cc(OC)c(OC)cc2[se]1)C(=O)O (stereo not drawn) [I-19, 4-(5,6-dimethoxybenzo[b]selenophene-2-yl)-2-(methoxymethyl)-4-oxo-butanoic acid] | ** (** represented an agitation fold of 10 to 20) | ** (** represented an agitation fold of 10 to 20) | 107% |
| CCCCC(CC(=O)c1cc2cc(OC)c(OC)cc2[se]1)C(=O)O (stereo not drawn) [I-20, 2-(2-(5,6-dimethoxybenzo[b]selenophene-2-yl)-2-oxo-ethyl) hexanoic acid] | ** (** represented an agitation fold of 10 to 20) | ** (** represented an agitation fold of 10 to 20) | 132% |
| COc1cc2cc(C(=O)CCCC(=O)O)[se]c2cc1OC [I-21, 5-(5,6-dimethoxybenzo[b]selenophene-2-yl)-5-oxo-pentanoic acid] | * (* represented an agitation fold of 1 to 10) | * (* represented an agitation fold of 1 to 10) | 12% |
| COc1cc2cc(C(=O)C3CC3C(=O)O)[se]c2cc1OC (stereo not drawn) [I-22] | ** (** represented an agitation fold of 10 to 20) | ** (** represented an agitation fold of 10 to 20) | 115% |

— US12606538B2, “Benzo[b]selenophene sting regulator, preparation method and use thereof” (CHINA PHARMACEUTICAL UNIVERSITY, priority 2021, dated 2026)
